In this assay the test system is P388 leukemia ip, CD2F1 mice, survival T/C. Nature of the assay: NCI In Vivo Anticancer Drug Screen. Data for tumor model P388 Leukemia (intraperitoneal) in CD2F1 (CDF1) mice. The conditions noted are these: endpoint: median survival time, higher = longer survival. A digest of the protocol:
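Mice carrying the transplanted tumor received test compound or vehicle. Survival was recorded in each group, and the value is the treated-group measurement divided by that of the vehicle-treated control group.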

Where [1] appears, read: dose: 100.0 mg/kg/injection, schedule: Q04DX002 (ip), vehicle: saline with Tween-80.
[2] abbreviates: dose: 200.0 mg/kg/injection, schedule: Q04DX002 (ip), vehicle: saline with Tween-80.
[3] abbreviates: dose: 400.0 mg/kg/injection, schedule: Q04DX002 (ip), vehicle: saline with Tween-80.
Setting [4] is: dose: 50.0 mg/kg/injection, schedule: Q01DX005 (ip), vehicle: saline with Tween-80.
The mark [5] stands for this setting: dose: 100.0 mg/kg/injection, schedule: Q01DX005 (ip), vehicle: saline with Tween-80.
[6] abbreviates: dose: 50.0 mg/kg/injection, schedule: Q01DX009 (ip), vehicle: Klucel (hydroxypropylcellulose) (HPC).
Where [7] appears, read: dose: 50.0 mg/kg/injection, schedule: Q01DX009 (ip), vehicle: saline with Tween-80.
The mark [8] stands for this setting: dose: 100.0 mg/kg/injection, schedule: Q01DX009 (ip), vehicle: Klucel (hydroxypropylcellulose) (HPC).
The mark [9] stands for this setting: dose: 100.0 mg/kg/injection, schedule: Q01DX009 (ip), vehicle: saline with Tween-80.
Setting [10] is: dose: 200.0 mg/kg/injection, schedule: Q01DX009 (ip), vehicle: Klucel (hydroxypropylcellulose) (HPC).
[11] abbreviates: dose: 200.0 mg/kg/injection, schedule: Q01DX009 (ip), vehicle: saline with Tween-80.
Where [12] appears, read: dose: 25.0 mg/kg/injection, schedule: Q01DX009 (ip), vehicle: Klucel (hydroxypropylcellulose) (HPC).

“And” between values parts separate entries of the source, which are not always exact repeats. Identical values can stand only once. Toxic doses and inconclusive results are not listed.

For the compound `Cc1nc2sccc2c(=O)n1C`, the T/C by setting is: (dose: 50.0 mg/kg/injection, schedule: Q01DX005 (ip), vehicle: Klucel (hydroxypropylcellulose) (HPC)) 97 % of control; (dose: 100.0 mg/kg/injection, schedule: Q01DX005 (ip), vehicle: Klucel (hydroxypropylcellulose) (HPC)) 98 % of control; (dose: 200.0 mg/kg/injection, schedule: Q01DX005 (ip), vehicle: Klucel (hydroxypropylcellulose) (HPC)) 103 % of control.
For the compound `Oc1cc(-c2ccc(Cl)cc2)c(O)cc1CN1CCOCC1`, the T/C by setting is: under setting [1], 92 % of control; under setting [2], 91 % of control; under setting [3], 92 % of control.
Regarding `O=C(O)c1cccc(C(=O)O)c1S(=O)Cc1ccccc1` (stereo unspecified), the T/C is 102 % of control under setting [4]; 93 % of control under setting [5]; 105 % of control (dose: 200.0 mg/kg/injection, schedule: Q01DX005 (ip), vehicle: saline with Tween-80).
Regarding `CN1CCC(CNC(=O)CCCCCCCCC(=O)NCC2(c3ccccc3)CCN(C)CC2)(c2ccccc2)CC1`, the T/C runs as follows: (dose: 0.39 mg/kg/injection, schedule: Q01DX009 (ip), vehicle: saline) 100 % of control; (dose: 0.78 mg/kg/injection, schedule: Q01DX009 (ip), vehicle: saline) 96 % of control; (dose: 1.56 mg/kg/injection, schedule: Q01DX009 (ip), vehicle: saline) 105 % of control; (dose: 3.12 mg/kg/injection, schedule: Q01DX009 (ip), vehicle: saline) 111 % of control.
Regarding `O=C(O)Cc1cccc2c(=O)cc(-c3ccccc3)oc12`, the T/C was 104 % of control (dose: 24.12 mg/kg/injection, schedule: Q01DX005 (ip), vehicle: saline); 101 % of control and 103 % of control and 106 % of control (dose: 30.0 mg/kg/injection, schedule: Q01DX009 (ip), vehicle: saline); 111 % of control (dose: 40.2 mg/kg/injection, schedule: Q01DX005 (ip), vehicle: saline); 109 % of control and 117 % of control and 122 % of control (dose: 44.0 mg/kg/injection, schedule: Q01DX009 (ip), vehicle: saline); 116 % of control (dose: 45.0 mg/kg/injection, schedule: Q01DX009 (ip), vehicle: sodium bicarbonate); 106 % of control (dose: 50.0 mg/kg/injection, schedule: Q01DX009 (ip), vehicle: saline). The T/C was 103 % of control (dose: 60.0 mg/kg/injection, schedule: Q04DX002 (ip), vehicle: sodium bicarbonate); 112 % of control (dose: 67.0 mg/kg/injection, schedule: Q01DX001 (ip), vehicle: sodium bicarbonate); 118 % of control (dose: 90.0 mg/kg/injection, schedule: Q04DX002 (ip), vehicle: sodium bicarbonate); 107 % of control (dose: 100.0 mg/kg/injection, schedule: Q01DX001 (ip), vehicle: sodium bicarbonate); 153 % of control (dose: 111.67 mg/kg/injection, schedule: Q01DX005 (ip), vehicle: saline); 106 % of control (dose: 150.0 mg/kg/injection, schedule: Q01DX001 (ip), vehicle: sodium bicarbonate). Besides, the T/C is 172 % of control (dose: 186.12 mg/kg/injection, schedule: Q01DX005 (ip), vehicle: saline); 112 % of control (dose: 200.0 mg/kg/injection, schedule: Q01DX001 (ip), vehicle: sodium bicarbonate); 103 % of control (dose: 223.0 mg/kg/injection, schedule: Q01DX001 (ip), vehicle: sodium bicarbonate); 116 % of control (dose: 300.0 mg/kg/injection, schedule: Q01DX001 (ip), vehicle: sodium bicarbonate); 112 % of control (dose: 333.0 mg/kg/injection, schedule: Q01DX001 (ip), vehicle: sodium bicarbonate); 114 % of control (dose: 400.0 mg/kg/injection, schedule: Q01DX001 (ip), vehicle: sodium bicarbonate). For the same compound, the T/C (dose: 500.0 mg/kg/injection, schedule: Q01DX001 (ip), vehicle: sodium bicarbonate) is 116 % of control.
As to `Clc1ccc2nsnc2c1`, the T/C (dose: 6.25 mg/kg/injection, schedule: Q01DX009 (ip), vehicle: saline with Tween-80) was 101 % of control; the T/C (dose: 12.5 mg/kg/injection, schedule: Q01DX009 (ip), vehicle: saline with Tween-80) is 95 % of control; the T/C (dose: 25.0 mg/kg/injection, schedule: Q01DX009 (ip), vehicle: saline with Tween-80) is 95 % of control; the T/C under setting [6] was 101 % of control; the T/C under setting [7] is 104 % of control; the T/C under setting [8] was 107 % of control. Moreover, the T/C is, setting by setting: under setting [9], 104 % of control; under setting [10], 108 % of control; under setting [11], 95 % of control.
Consider `Cc1ccc2c(c1)C(O)(CC(=O)c1ccccc1)C(=O)N2` (stereo unspecified), for which the T/C runs as follows: under setting [7], 99 % of control; under setting [9], 96 % of control; under setting [11], 95 % of control.
As to `Cc1cn(C2CC(O)C(Cn3ccc4ccccc43)O2)c(=O)[nH]c1=O` (stereo unspecified), the T/C runs as follows: (dose: 1.56 mg/kg/injection, schedule: Q01DX009 (ip), vehicle: Klucel (hydroxypropylcellulose) (HPC)) 103 % of control; (dose: 3.13 mg/kg/injection, schedule: Q01DX009 (ip), vehicle: Klucel (hydroxypropylcellulose) (HPC)) 99 % of control; (dose: 6.25 mg/kg/injection, schedule: Q01DX009 (ip), vehicle: Klucel (hydroxypropylcellulose) (HPC)) 99 % of control; (dose: 12.5 mg/kg/injection, schedule: Q01DX009 (ip), vehicle: Klucel (hydroxypropylcellulose) (HPC)) 99 % of control; under setting [12], 97 % of control.
Consider `COc1cc(O)ccc1/C=C/C(=O)c1ccc(OC2OC(CO)C(O)C(O)C2O)cc1` (stereo unspecified), for which the T/C under setting [1] was 98 % of control, the T/C under setting [2] was 105 % of control and the T/C under setting [3] was 108 % of control.
Take `COc1ccc(Cc2c3cc(OC)c(OC)cc3cc(=O)n2C)cc1OC`: the T/C under setting [6] is 106 % of control and the T/C under setting [8] is 106 % of control.
Turning to `N/C(=N\OC(=O)Nc1cccc(Cl)c1)C(Cl)(Cl)Cl`, the T/C by setting is: under setting [12], 98 % of control; under setting [6], 113 % of control; under setting [8], 112 % of control.
Take `Cc1c(C(N)=O)no[n+]1[O-]`: the T/C was 100 % of control (dose: 30.0 mg/kg/injection, schedule: Q01DX005 (ip), vehicle: saline); 99 % of control and 100 % of control (dose: 60.0 mg/kg/injection, schedule: Q01DX005 (ip), vehicle: saline); 99 % of control and 100 % of control (dose: 120.0 mg/kg/injection, schedule: Q01DX005 (ip), vehicle: saline).
Regarding `CC(C)(C)OC(=O)NC(COCc1ccccc1)C(=O)ON1C(=O)CCC1=O` (stereo unspecified), the T/C under setting [4] is 114 % of control and the T/C under setting [5] is 103 % of control.
Turning to `CC1(COC(=O)C2(C)CO2)CO1` (stereo unspecified), the T/C (dose: 25.0 mg/kg/injection, schedule: Q01DX005 (ip), vehicle: water) was 99 % of control; the T/C (dose: 50.0 mg/kg/injection, schedule: Q01DX005 (ip), vehicle: saline) is 91 % of control; the T/C (dose: 50.0 mg/kg/injection, schedule: Q01DX005 (ip), vehicle: water) was 101 % of control and 115 % of control; the T/C (dose: 100.0 mg/kg/injection, schedule: Q01DX005 (ip), vehicle: saline) is 97 % of control; the T/C (dose: 100.0 mg/kg/injection, schedule: Q01DX005 (ip), vehicle: water) was 120 % of control; the T/C (dose: 200.0 mg/kg/injection, schedule: Q01DX005 (ip), vehicle: saline) was 91 % of control.
For the compound `FC(F)(F)c1cccc(OCC2CO2)c1` (stereo unspecified), the T/C reads like this: under setting [6], 102 % of control; under setting [8], 99 % of control; under setting [10], 97 % of control.
As for `CCC(=O)OC1CC2(C)C(=CC1=O)CCC1C2CCC2(C)C(OC(=O)CC)CCC12` (stereo unspecified), the T/C under setting [7] was 100 % of control; the T/C under setting [9] is 95 % of control; the T/C (dose: 100.0 mg/kg/injection, schedule: Q04DX003 (ip), vehicle: saline with Tween-80) was 100 % of control; the T/C under setting [11] was 100 % of control; the T/C (dose: 200.0 mg/kg/injection, schedule: Q04DX003 (ip), vehicle: saline with Tween-80) was 100 % of control.
As to `COC(=O)C1=CO[C@@H](C)[C@@H]2CN3CCc4c([nH]c5cc(OC)ccc45)[C@@H]3C[C@H]12`, the T/C runs as follows: under setting [4], 96 % of control; under setting [5], 92 % of control.
Regarding `CC(=O)Nc1c(Nc2ccc3c(=O)[nH]ccc3c2C)cc[nH]c1=O`, the T/C was 102 % of control (dose: 60.0 mg/kg/injection, schedule: Q01DX005 (ip), vehicle: saline with Tween-80); 104 % of control (dose: 120.0 mg/kg/injection, schedule: Q01DX005 (ip), vehicle: saline with Tween-80); 103 % of control (dose: 240.0 mg/kg/injection, schedule: Q01DX005 (ip), vehicle: saline with Tween-80).

For the origin of these results see PubChem BioAssay AID330 (DTP/NCI, 2004).
